Key:
trauma victims [1] = assay: Trauma victims with or without PTSD or depression, stress-related physiologic measures (Example 6); format: in vivo, human; details: 25-75 mg/day by mouth for 1 to 6 months
healthy male volunteers = details: cited from earlier work
trauma victims [2] = assay: Trauma victims after a terrorist attack, 7-keto DHEA vs placebo (Example 4); format: in vivo, human; details: 50 or 75 mg/day by mouth for 2 to 6 weeks immediately following the incident
[3] = tested on: trauma victims with PTSD or depression; assay: Trauma victims with PTSD or depression, 7-keto DHEA vs placebo (Example 5); format: in vivo, human; details: 75 mg/day by mouth for 1 to 6 months
[4] = tested on: patients with treatment-resistant PTSD, panic disorder, anxiety, depression and other conditions; assay: Eight case reports: 7-keto DHEA in treatment-resistant patients (Example 3); format: in vivo, human
[5] = tested on: women with severe chronic PTSD; assay: Five case reports: 7-keto DHEA in women with treatment-resistant PTSD (Example 1); format: in vivo, human
Text: The following case reports are of 5 women with severe chronic PTSD resulting from severe early abuse who continued to be highly symptomatic despite receiving extensive psychotherapy and years of psychopharmacologic treatment. […] The improvements in these symptoms not only were subjective and objective, but also manifested in significant and rapid benefits in vocational and interpersonal functioning.
Ms. […] A. was so fearful and avoidant they would miss many sessions. They were so fragile and frightened they would frequently dissociate during sessions and forget what had been discussed. […] After the first week of 7-keto DHEA therapy, Ms. […] They reported feeling “more organized, more present” and being able to enjoy socializing “with a significant lessening of constant fear and self-criticism.”
The outcome of this case series offers evidence that 7-keto DHEA is beneficial in treating patients with histories of severe early trauma and persistent refractory PTSD.

[6] = tested on: male and female patients with PTSD, panic disorder, anxiety, depression; assay: Sixteen case reports: oral 7-keto DHEA in PTSD, panic disorder, anxiety, depression and other conditions (Example 2); format: in vivo, human
Experimental: In all the patient reports that follow, 7-keto DHEA was administered orally.

[7] = tested on: midlife major and minor depression or dysthymia; details: case reports; cited from earlier work

CC(=O)OC1CC[C@@]2(C)C(=CC(=O)[C@@H]3[C@@H]2CC[C@]2(C)C(=O)CC[C@@H]32)C1 (some centres unmarked) [7-keto DHEA, 3-acetyl-7-oxo-dehydroepiandrosterone]
stress-related physiologic measures (pain, headaches, hypertension, alcohol and substance abuse, work days lost to illness, cardiac events) compared to placebo (trauma victims [1]; patients with PTSD or depression): reduction in one or more stress-related physiologic measures | stress-related physiologic measures (pain, headaches, hypertension, alcohol and substance abuse, work days lost to illness, cardiac events) compared to placebo (trauma victims [1]; patients without PTSD or depression): reduction in one or more stress-related physiologic measures | differences in clinical laboratory values, minor adverse experiences, vital signs, blood chemistry, urinalysis between treatment and placebo groups (healthy male volunteers; healthy male volunteers): no differences | side effects or changes in clinical laboratory values (healthy male volunteers; study by Davidson et al.): no side effects or changes in clinical laboratory values | PTSD, depression and stress-related emotional conditions compared to placebo (trauma victims [2]): reduction in PTSD, depression and stress-related emotional conditions | PTSD, depression and stress-related emotional conditions compared to placebo [3]: reduction in their PTSD depression and stress-related emotional conditions | time the patient remained well ([4]; Example 3 patient 7, 200 mg/day): 9 months | time the patient remained well ([4]; Example 3 patients 3 and 6 on 7-keto DHEA (50; 100 mg/day)): about 1 year | clinical response ([4]; Patient 1, lifelong depression, PMDD, sexual PTSD, 75 mg/day): improved | clinical response ([4]; Patient 2, lifelong anxiety, 4 years of depression, 50 mg/day): very effective | clinical response ([4]; Patient 3, GAD, panic disorder, fibromyalgia/CFS, 50 mg/day): improvement in their symptoms | clinical response ([4]; Patient 4, severe dissociative identity disorder, fibromyalgia, Bipolar Disorder, 200 mg/day): has been well for a year and is able to read and function | clinical response ([4]; Patient 5, PTSD and bipolar 2 disorder, 50 mg/day in summer, 100 mg/day in winter): very effective | clinical response ([4]; Patient 6, failed most antidepressants, atypical antipsychotics and ECT, 100 mg/day): tremendous positive effects in 1 week | clinical response after partial relapse ([4]; Patient 6, dosage increased from 100 mg/day to 300 mg/day after stressful episode (breast cancer)): good results | clinical response ([4]; Patient 7, lifelong depression, sexual PTSD, fibromyalgia/CFS, 200 mg/day): significant benefit | clinical response ([5]; Case 1 (PTSD, bipolar II, dissociative identity disorder), 25 mg/day, after the first week, adjunct): stopped feeling so fearful, stopped dissociating, was much more communicative, and related better | libido ([5]; Case 1, 50 mg/day): went from having no libido to some libido | clinical response ([5]; Case 1, after 3 weeks on 50 mg/day): stopped having nightmares, had much better concentration, functioned better at work and in social situations, had more stable mood | clinical response ([5]; Case 1, dosage increased to 50 mg daily): even further improvement | clinical response ([5]; Case 2 (PTSD, bipolar disorder NOS), 25 mg daily, within a few days, adjunct): feeling much better | vocational functioning ([5]; Case 2, 25 mg daily, within 2 weeks): felt calm and centered enough to return to work | clinical response ([5]; Case 3 (PTSD, major depressive disorder), 25 mg daily, after 4 days, adjunct): felt better and was no longer getting anxious and overwhelmed by stressful events | nightmares and flashbacks ([5]; Case 3, 25 mg daily, seven days after start): fewer nightmares and flashbacks | clinical response ([5]; Case 4 (PTSD with dissociative identity disorder), 50 mg for 6 weeks, adjunct): some improvement in daily functioning and more positive affect | clinical response ([5]; Case 4, 100 mg for 6 weeks): became much more social | clinical response ([5]; Case 4, 150 mg daily): continued to improve | clinical response ([5]; Case 5 (anxiety, PTSD, dissociative identity disorder, panic attacks), 25 mg daily raised to 50 and 75 mg daily, single agent): feeling calmer and being better able to deal with the stress | reduction in trauma and affective symptoms ([5]; all 5 treatment-resistant women, after starting 7-keto DHEA): rapid and substantial reduction in their trauma and affective symptoms | negative side effects ([5]; the 5 patients on 7-keto DHEA): None of the 5 patients on 7-keto DHEA treatment reported any negative side effects | clinical response ([6]; Patient 1, PTSD and Generalized Anxiety Disorder, 25 mg/day oral): less anxiety within 2 days | clinical response ([6]; Patient 2, PTSD, chronic anxiety, Major depression, 50 mg/day oral): less anxiety and depression | clinical response ([6]; Patient 3, Panic Disorder and Generalized Anxiety Disorder, 25 mg/day oral): less anxiety and panic | clinical response ([6]; Patient 4, PTSD, Generalized Anxiety Disorder, Bipolar Depression, 25 mg/day oral): less anxious and depressed | clinical response ([6]; Patient 5, Bipolar Depression and PTSD, 25 mg/day oral): less anxious and depressed | clinical response ([6]; Patient 6, Tourette's Syndrome, chronic dysthymia, anxiety, 50 mg/day oral): calmer and in a better mood | clinical response ([6]; Patient 7, Ankylosing Spondylitis, chronic pain, depression, 25 mg/day oral): calmer and less depressed | clinical response ([6]; Patient 8, Dissociative Disorder, PTSD, Major Depression, Dependent Personality Disorder, 25 mg/day oral): less anxiety and dissociation | clinical response ([6]; Patient 9, PTSD, Generalized Anxiety Disorder, Major Depression, 25 to 50 mg/day oral): less anxious and depressed | clinical response ([6]; Patient 10, Bipolar Depression and PTSD, 25 mg/day oral): less anxious and depressed | clinical response ([6]; Patient 11, Bipolar Depression and PTSD, 25 mg/day oral): less anxious | clinical response ([6]; Patient 12, Bipolar Depression and PTSD, 25 mg/day oral): less anxious | clinical response ([6]; Patient 13, PTSD and Major Depression, 50 mg/day oral): less depressed and anxious | clinical response ([6]; Patient 14, Adult ADHD, Bereavement, PTSD, 25 mg/day oral): less irritable and anxious | clinical response ([6]; Patient 15, Generalized Anxiety Disorder, 25 mg/day oral): lower anxiety and better mood | clinical response ([6]; Patient 16, Generalized Anxiety Disorder and Fibromyalgia, 25 mg/day oral): lower anxiety and irritability | induced mania [7]: no case reports of induced mania

Source: patent US8124598B2 (priority 2006, dated 2012)
